Laboratory results from patent US20150044717A1, “DEVICES AND METHODS FOR OBSERVING EUKARYOTIC CELLS WITHOUT CELL WALL” (CENTRE NATIONAL DE LA RECHERCHE SCIENTIFIQUE, priority 2012, published 2015).

Test system: cytokinetic ring of HeLa cells
Assay: closure of the cytokinetic ring of cells in egg cups after addition of drugs (fluorescence microscopy)
Type: cell-based, human
Settings: for ring diameter as a function of time / closing speed: after addition of latrunculin A 1.5 μM
Experimental: For the experiments, a human HeLa cell line was used. The cells were stably transfected with a plasmid coding for actin monomers tagged with GFP. Cells were cultured in a growth medium containing DMEM with 10% FCS and 2 mM of L-Glutamine. After replating cells, Geneticin (0.5 mg/ml) was added to the medium.
During the experiments, cells were cultured in L-15 with 10% FCS and 2 mM of L-Glutamine.
Synchronized cells were obtained by mitotic shake-off. To have a sufficient number of dividing cells, cells were cultured in flasks of 75 cm^2 surface. The flasks were tapped on a solid surface to detach loosely attached cells, which rounded up before undergoing division. Alternatively, cells were synchronized with classical protocols such as the thymidine block, mitotic block (both Whitfield M L, Mol. Cell. Biol. 2000, 20(12): 4188-4198) or monastrol incubation (Straight A F et al., Science. 2003, 299:1743-1747).
The coverslips with the egg cups were exposed to nitrogen plasma for 30 s and then incubated with a solution of fibronectin (20 μg/ml in phosphate buffered saline (PBS), Sigma Aldrich) for 1 h. The sample could be stored in PBS for some hours. A cylindrically shaped plastic piece was placed in a 50 ml tube. The tube was filled with 6.5 ml of growth medium. The egg cup coverslip was horizontally placed in a tube, supported by the plastic cylinder. The suspension of synchronized cells was added on top of the coverslip. The tube was centrifuged for 5 min at 4000 rpm. The coverslip was carefully removed from the tube and installed in a home-made metallic holder. L-15 medium with 10% FCS and 2 mM L-Glutamine was immediately added. During the experiment the holder was closed by a plastic cover to prevent evaporation.
The drugs were added immediately before the experiment. The inventors used a concentration of 1.5 μM latrunculin A (Sigma Aldrich) (Delanoc-Ayari H. et al., Phys. Rev. Lett. 2004, 93(10): 108102) and 100 μM (−)-blebbistatin (Sigma Aldrich) (Straight A F et al., Science. 2003, 299:1743-1747).
The objective was a Plan Apo 60× objective (oil, 1.40 NA, Nikon). The images were captured and processed with the NIS Elements software (v3.10, SP3, Nikon).

[1] = blebbistatin 100 μM, HeLa cells in egg cups

SMILES: Cc1ccc2c(c1)C(=O)C1(O)CCN(c3ccccc3)C1=N2 (single isomer, unassigned; (-)) [Blebbistatin, (−)-blebbistatin]
- cell division (ring diameter as a function of time) [1]: slows down and stops the division
- closure of the cytokinetic ring [1]: the closure was slowed down and failed

SMILES: C/C1=C/C(=O)O[C@@H]2C[C@@H](CC[C@H](C)/C=C\C=C\CC1)O[C@@](O)([C@@H]1CSC(=O)N1)C2 [Latrunculin A, latrunculin A]
- ring diameter as a function of time / closing speed (HeLa cells in egg cups): a slight increase in closing speed, then a slight expansion of the ring
- ring diameter as a function of time / closing speed (HeLa cells in egg cups, listed as latrunculin A): the speed is first slightly increasing, then the ring becomes larger again until the signal vanishes
- cell division (in the presence of latrunculin A 1.5 μM, HeLa cells in egg cups): Cells did not divide
- closure of the cytokinetic ring (latrunculin A 1.5 μM, HeLa cells with GFP-actin in egg cups): the ring does not close completely
